The text below walks through data of ChEMBL document CHEMBL6153170 (J Med Chem, 2025).

Data set [1] addresses Programmed cell death protein 1/Programmed cell death 1 ligand 1 (Homo sapiens, UniProt Q9NZQ7). Briefly: Inhibition of PD-1/PD-L1 (unknown origin) protein-protein interaction by HTRF assay. Format: protein-complex assay. In general terms: Time-resolved FRET reads energy transfer from a long-lived donor to a nearby acceptor.
The target in data set [2] is T1, Histone deacetylase 8 (Homo sapiens, UniProt Q9BY41).
T1 sequence (Q9BY41 whole entry): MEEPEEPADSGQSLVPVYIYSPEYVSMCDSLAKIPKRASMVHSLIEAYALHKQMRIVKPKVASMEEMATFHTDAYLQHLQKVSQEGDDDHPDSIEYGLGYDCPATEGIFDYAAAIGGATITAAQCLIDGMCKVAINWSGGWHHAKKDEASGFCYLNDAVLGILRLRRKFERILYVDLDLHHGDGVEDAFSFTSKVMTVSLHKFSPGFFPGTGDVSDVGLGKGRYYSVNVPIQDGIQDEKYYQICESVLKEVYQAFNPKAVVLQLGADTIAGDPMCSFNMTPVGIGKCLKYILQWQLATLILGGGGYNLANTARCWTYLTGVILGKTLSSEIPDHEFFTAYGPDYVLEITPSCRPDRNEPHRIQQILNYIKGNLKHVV
Briefly: Inhibition of C-terminal His-tagged recombinant full length human HDAC8 extracted from baculovirus infected Sf9 insect cells preincubated for 5 mins followed by substrate addition and measured after 30 mins by fluorescence microplate reader analysis.

Data set [3] concerns MCF7. Put plainly: cells. The following applies: Homo sapiens, MCF7, 48 h.
Data set [4] concerns the target T2, Histone deacetylase 7 (Homo sapiens, UniProt Q8WUI4).
T2 sequence (Q8WUI4 whole entry): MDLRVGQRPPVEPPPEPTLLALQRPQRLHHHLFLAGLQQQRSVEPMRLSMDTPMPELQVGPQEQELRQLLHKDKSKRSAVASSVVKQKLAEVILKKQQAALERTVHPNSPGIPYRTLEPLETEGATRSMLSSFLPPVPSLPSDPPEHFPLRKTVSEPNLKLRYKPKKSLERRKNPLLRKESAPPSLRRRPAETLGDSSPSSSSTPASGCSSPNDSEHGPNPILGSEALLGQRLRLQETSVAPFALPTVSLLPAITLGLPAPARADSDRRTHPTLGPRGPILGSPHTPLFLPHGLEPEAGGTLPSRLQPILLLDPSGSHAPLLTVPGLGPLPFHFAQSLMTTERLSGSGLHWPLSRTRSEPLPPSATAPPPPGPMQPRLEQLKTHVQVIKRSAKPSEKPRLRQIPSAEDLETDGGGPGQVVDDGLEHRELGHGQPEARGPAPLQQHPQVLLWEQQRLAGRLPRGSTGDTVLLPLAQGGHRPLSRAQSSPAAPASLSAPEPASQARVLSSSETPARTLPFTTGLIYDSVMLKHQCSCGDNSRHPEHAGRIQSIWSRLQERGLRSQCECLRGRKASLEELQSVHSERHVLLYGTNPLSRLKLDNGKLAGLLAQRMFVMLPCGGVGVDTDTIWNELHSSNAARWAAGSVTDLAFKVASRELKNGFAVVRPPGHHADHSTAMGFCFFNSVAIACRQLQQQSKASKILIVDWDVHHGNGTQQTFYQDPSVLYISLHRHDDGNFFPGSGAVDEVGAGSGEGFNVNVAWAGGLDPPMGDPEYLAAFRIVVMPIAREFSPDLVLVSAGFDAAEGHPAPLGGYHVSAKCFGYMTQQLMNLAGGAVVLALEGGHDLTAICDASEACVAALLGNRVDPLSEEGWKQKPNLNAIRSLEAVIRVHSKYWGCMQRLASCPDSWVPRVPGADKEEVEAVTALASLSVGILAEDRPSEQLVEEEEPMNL
Put plainly: Inhibition of N-terminal GST-tagged recombinant human HDAC7 (501 to 952 residues) extracted from baculovirus expression system using Ac-Leu-Gly-Lys (Tfa)-AMC as substrate preincubated for 5 mins followed by substrate addition and measured after 30 mins by fluorescence microplate reader analysis.

Data set [5] has as its system B16-F10. Briefly: cells. The following applies: Mus musculus, B16-F10, 48 h.
The subject of data set [6] is HepG2. Briefly: cells. The following applies: Homo sapiens, HepG2, 48 h.
The test system of data set [7] is Jurkat. Put plainly: cells. The conditions noted are these: Homo sapiens, 72 h.
The nature of data set [8]: Aqueous solubility of compound incubated for 24 hrs by miniaturized shake flask based HPLC analysis. Format: physicochemical. The following applies: buffer.
Data set [9] has as its system B16-F10. Briefly: Antitumor immunity activity against mouse B16-F10 cells implanted in C57BL/6 mouse model assessed as CD3+ CD4+ T cell percentage in tumor at 20 mg/kg/day, ip administered for 14 days by flow cytometric analysis (reference value: 0.095 %). Format: functional. The conditions noted are these: time 14 day.
Data set [10] in a line: In vivo inhibition of PD-L1 in C57BL/6 mouse model implanted with mouse B16-F10 cells assessed as reduction in PD-L1 protein expression in tumor at 20 mg/kg/day, ip administered for 14 days by Western blot analysis relative to control. Format: functional. The conditions noted are these: C57BL/6, B16-F10, 336 h, time 14 day. (In general: A western blot detects proteins with antibodies after separation by electrophoresis.)

The test system of data set [11] is B16-F10. Put plainly: Antitumor immunity activity against mouse B16-F10 cells implanted in C57BL/6 mouse model assessed as CD3+ CD8+ T cell percentage in tumor at 20 mg/kg/day, ip administered for 14 days by flow cytometric analysis (reference value: 0.52 %). Format: functional. The following applies: time 14 day. For orientation: A flow cytometer gives signals particle by particle.

The target in data set [12] is T3, Protein deacetylase HDAC6 (Mus musculus) (UniProt Q9Z2V5).
T3 sequence (whole entry): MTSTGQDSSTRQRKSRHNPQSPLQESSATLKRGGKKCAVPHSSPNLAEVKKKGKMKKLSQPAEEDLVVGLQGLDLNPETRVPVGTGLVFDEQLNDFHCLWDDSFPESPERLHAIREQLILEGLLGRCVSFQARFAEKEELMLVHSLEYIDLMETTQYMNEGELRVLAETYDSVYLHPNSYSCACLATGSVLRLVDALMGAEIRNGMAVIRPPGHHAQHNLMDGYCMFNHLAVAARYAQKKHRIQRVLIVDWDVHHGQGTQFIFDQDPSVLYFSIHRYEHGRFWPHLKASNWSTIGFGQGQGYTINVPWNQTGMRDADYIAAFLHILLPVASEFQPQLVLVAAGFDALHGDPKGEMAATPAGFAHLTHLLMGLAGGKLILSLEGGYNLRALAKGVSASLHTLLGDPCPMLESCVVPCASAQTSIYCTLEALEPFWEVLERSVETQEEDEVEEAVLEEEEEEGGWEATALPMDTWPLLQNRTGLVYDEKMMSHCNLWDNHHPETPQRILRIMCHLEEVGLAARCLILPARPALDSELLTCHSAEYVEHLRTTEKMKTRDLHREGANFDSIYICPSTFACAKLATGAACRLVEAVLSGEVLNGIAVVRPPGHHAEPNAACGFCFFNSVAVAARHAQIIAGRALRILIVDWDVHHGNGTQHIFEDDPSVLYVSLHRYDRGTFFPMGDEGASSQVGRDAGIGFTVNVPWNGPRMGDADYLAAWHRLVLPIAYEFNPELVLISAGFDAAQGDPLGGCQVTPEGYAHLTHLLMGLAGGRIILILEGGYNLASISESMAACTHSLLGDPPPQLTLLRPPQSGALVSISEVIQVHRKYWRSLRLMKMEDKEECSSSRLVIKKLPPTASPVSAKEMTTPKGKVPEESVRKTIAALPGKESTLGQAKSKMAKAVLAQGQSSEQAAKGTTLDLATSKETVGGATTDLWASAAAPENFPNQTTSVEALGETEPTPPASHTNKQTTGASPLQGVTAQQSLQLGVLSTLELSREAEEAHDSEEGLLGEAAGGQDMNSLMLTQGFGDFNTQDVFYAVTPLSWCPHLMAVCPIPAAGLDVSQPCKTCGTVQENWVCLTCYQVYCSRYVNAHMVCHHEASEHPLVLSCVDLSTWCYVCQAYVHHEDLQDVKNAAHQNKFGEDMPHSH
Briefly: In vivo inhibition of HDAC6 in C57BL/6 mouse model implanted with mouse B16-F10 cells assessed as increase in acetylated alpha-tubulin protein level in tumor at 20 mg/kg/day, ip administered for 14 days by Western blot analysis. The conditions noted are these: time 14.0 day. Format: functional, organism-based.

The test system of data set [13] is B16-F10. Briefly: Antitumor activity against mouse B16-F10 cells implanted in C57BL/6 mouse model assessed as tumor growth inhibition at 20 mg/kg/day, ip administered for 14 days relative to control. Format: functional. The conditions noted are these: B16-F10, 336 h, time 14 day, read-out: TGI.
The subject of data set [14] is B16-F10. Briefly: Effect on HDAC6 protein level in mouse B16-F10 cells at 0.1 to 2 uM incubated for 12 hrs by Western blot analysis. Format: functional, cell-based. The conditions noted are these: dose 0.1-2 µM.
The target of data set [15] is T3, Protein deacetylase HDAC6 (Mus musculus). Briefly: Inhibition of HDAC6 in mouse B16-F10 cells assessed as increase in acetylated alpha-tubulin level incubated for 12 hrs by Western blot analysis. Format: cell-based. The following applies: dose 0.1-2 µM.
Data set [16] concerns B16-F10. Put plainly: Downregulation of PD-L1 expression level in mouse B16-F10 cells at 0.1 to 2 uM incubated for 24 hrs by Western blot analysis. Format: functional, cell-based. The conditions noted are these: dose 0.1-2 µM.
Data set [17] relates to Jurkat. Briefly: Effect on HDAC6 protein level in human Jurkat T cells at 0.1 to 2 uM incubated for 12 hrs by Western blot analysis. Format: functional, cell-based. The following applies: dose 0.1-2 µM.
The test system of data set [18] is B16-F10. Briefly: Effect on STAT3 expression level in mouse B16-F10 cells at 0.1 to 2 uM incubated for 24 hrs by Western blot analysis. Format: functional, cell-based. The following applies: dose 0.1-2 µM.
In data set [19] the test system is B16-F10. Put plainly: Downregulation of p-STAT3 expression level in mouse B16-F10 cells at 0.1 to 2 uM incubated for 24 hrs by Western blot analysis. Format: functional, cell-based. The following applies: dose 0.1-2 µM.
For data set [20], the system named is B16-F10. Put plainly: Upregulation of acetylated histone H3 protein level in mouse B16-F10 cells at 0.1 to 2 uM incubated for 12 hrs by Western blot analysis. Format: functional, cell-based. The conditions noted are these: dose 0.1-2 µM.
Data set [21] relates to Jurkat. Briefly: Upregulation of acetylated histone H3 protein level in human Jurkat T cells at 0.1 to 2 uM incubated for 12 hrs by Western blot analysis. Format: functional, cell-based. The conditions noted are these: dose 0.1-2 µM.
Data set [22] concerns the target Histone deacetylase 1 (Homo sapiens, UniProt Q13547). Put plainly: Inhibition of recombinant full-length human HDAC1 (1 to 482 residues) extracted from baculovirus expression system using Ac-Leu-Gly-Lys (Ac)-AMC as substrate preincubated for 5 mins followed by substrate addition and measured after 30 mins by fluorescence microplate reader analysis.

≈ marks a conversion by molar mass, not a printed value. Calls of active or inactive are those of the source. No cut-off for these calls is given here. A value given as a limit tells only on which side of the number the result lay.

In general, IC50 refers to the point on the concentration scale where inhibition reaches its midpoint. In general, thermodynamic solubility refers to the concentration in solution at equilibrium with solid.

Chain of Programmed cell death protein 1/Programmed cell death 1 ligand 1 (Q15116 whole entry): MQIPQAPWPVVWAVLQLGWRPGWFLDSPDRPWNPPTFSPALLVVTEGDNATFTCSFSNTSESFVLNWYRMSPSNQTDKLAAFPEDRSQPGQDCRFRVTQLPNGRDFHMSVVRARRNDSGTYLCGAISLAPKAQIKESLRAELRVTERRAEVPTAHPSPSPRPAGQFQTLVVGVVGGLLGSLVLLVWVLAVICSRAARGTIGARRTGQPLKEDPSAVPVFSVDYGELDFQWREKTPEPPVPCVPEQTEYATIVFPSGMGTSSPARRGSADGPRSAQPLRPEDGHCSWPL
Chain of Programmed cell death protein 1/Programmed cell death 1 ligand 1 (Q9NZQ7 whole entry): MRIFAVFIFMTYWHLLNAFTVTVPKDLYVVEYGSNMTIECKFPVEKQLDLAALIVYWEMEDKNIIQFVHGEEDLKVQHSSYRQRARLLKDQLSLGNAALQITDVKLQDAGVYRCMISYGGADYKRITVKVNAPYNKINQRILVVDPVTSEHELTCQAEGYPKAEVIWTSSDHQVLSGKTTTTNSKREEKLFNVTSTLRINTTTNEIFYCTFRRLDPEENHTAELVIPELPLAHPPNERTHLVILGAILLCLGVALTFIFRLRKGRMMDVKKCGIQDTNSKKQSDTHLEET
Chain of Histone deacetylase 1 (Q13547 whole entry, the tested form may be a part): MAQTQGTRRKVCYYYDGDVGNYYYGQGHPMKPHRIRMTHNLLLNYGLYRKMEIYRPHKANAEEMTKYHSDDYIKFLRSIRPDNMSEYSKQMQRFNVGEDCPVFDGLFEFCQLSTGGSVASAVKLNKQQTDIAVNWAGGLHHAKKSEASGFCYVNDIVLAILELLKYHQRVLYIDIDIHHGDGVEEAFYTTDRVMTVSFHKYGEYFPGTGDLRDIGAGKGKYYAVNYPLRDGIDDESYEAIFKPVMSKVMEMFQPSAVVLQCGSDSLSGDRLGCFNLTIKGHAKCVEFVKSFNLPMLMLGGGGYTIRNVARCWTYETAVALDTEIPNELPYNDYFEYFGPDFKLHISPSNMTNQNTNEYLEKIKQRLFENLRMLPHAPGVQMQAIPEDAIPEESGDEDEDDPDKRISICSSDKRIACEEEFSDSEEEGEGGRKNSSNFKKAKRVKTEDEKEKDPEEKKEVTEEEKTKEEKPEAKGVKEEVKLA

Consider `COc1nc(-c2cccc(-c3ccccc3)c2C)ccc1CNCC(=O)NO`, for which the half-inhibitory concentration (IC50) in data set [1] was 0.0163 µM; in data set [2], over 10 µM; in [3], over 10 µM; in data set [4] it was 10 µM; in [5], 8.5 µM; in data set [6] it was over 10 µM. Besides, the IC50 in [7] was 9 µM.
For `COc1nc(-c2cccc(-c3ccccc3)c2C)ccc1CNCCCC(=O)NO`, the IC50 in data set [1] is 0.0208 µM; in data set [2], over 10 µM; in [4], over 100 µM.
As for `COc1nc(-c2cccc(-c3ccccc3)c2C)ccc1CNCCCCC(=O)NO`, the 50% inhibitory concentration (IC50) in data set [1] is 0.0792 µM; in data set [2], over 10 µM; in data set [3] it was over 10 µM; in data set [4], over 100 µM; in data set [5], over 10 µM; in [6], 9.7 µM. Also, the IC50 in data set [7] is over 10 µM.
Take `COc1nc(OCc2cccc(-c3ccccc3)c2C)ccc1CNCCCCCCC(=O)NO`: the half-inhibitory concentration (IC50) in [1] is 0.0592 µM; in data set [2], over 10 µM; in data set [3], over 10 µM; in data set [4], over 100 µM; in data set [5] it was over 10 µM; in data set [6], over 10 µM. Moreover, the IC50 in [7] was over 10 µM.
Molecule `COc1nc(OCc2cccc(-c3ccccc3)c2C)ccc1CNCCNC(C)=O` displayed a thermodynamic solubility at 24 h in data set [8] of 38.3 µg/mL (≈ 91.3 µM).
With `Cc1c(COc2cc(OCc3cccc(C#N)c3)c(CNC(C)(C)C(=O)O)cc2Cl)cccc1-c1ccccc1`, the Activity in [9] is recorded as 3.41%; in data set [11], 4.99%. Moreover, the inhibition in vivo at 20 mg/kg/day in data set [10] is about 50%; in data set [13] it was 43.2%. Also, in data set [12], the inhibition result is “inactive”.
Regarding `O=C(CCCCCCNC(=O)c1cnc(N(c2ccccc2)c2ccccc2)nc1)NO` [RICOLINOSTAT], the Activity came to 2.62% in data set [9] and 1.04% in data set [11]. Moreover, the figures for the inhibition in vivo at 20 mg/kg/day in data set [10] and in [13] were about 30% and 45.6%, respectively. Also, the outcome in data set [14], in [17] and in data set [18] was inactive. For the same molecule, the inhibition result in data set [12] was “Active”. In data set [15], the inhibition result was “Dose-dependent-effect”. Further, the half-inhibitory concentration (IC50) in [3] was 8.3 µM; in data set [5], over 10 µM; in data set [6], 7.9 µM; in data set [7] it was 6.7 µM. The result in data set [16] and in data set [19] was Active.
As for `O=C(CCCCCCC(=O)Nc1ccccc1)NO`, the outcome in data set [20] and in data set [21] was Active.
With `COc1nc(OCc2cccc(-c3ccccc3)c2C)ccc1CNCCCCC(=O)NO`, the IC50 in data set [1] is 0.1 µM; in data set [2], over 10 µM; in data set [3], over 10 µM; in data set [4] it was over 100 µM; in data set [22] it was over 10 µM; in data set [5] it was over 10 µM. Further, the IC50 in data set [6] was 9.7 µM; in data set [7] it was over 10 µM.
